Measurements: patent publication US20260048051A1, “TREATMENT OF INFLAMMATORY BOWEL DISEASE” (Atomwise Inc., priority 2024, published 2026)

Columns and labels:
[1] = target: T1, TYK2-JH2 (Homo sapiens, UniProt P29597); test: TYK2-JH2 HTRF binding assay (ligand efficiency); conditions: calculated from binding-assay IC50 (Equation 1)
T1 construct: TYK JH2 enzyme mix (ChemPartner: CP20210818A-BV); purchased ChemPartner CP20210818A-BV
Method in brief: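 HTRF competition binding: 0.5 nM His-tagged TYK2 JH2 preincubated 10 min at room temperature with compound (final 0.1 to 0.000005 μM), then 35 nM tracer and anti-6HIS Tb cryptate added for 60 min. Buffer 20 mM HEPES pH 7.5, 10 mM MgCl2, 0.01% Triton X-100, 1 mM DTT; TR-FRET Ex340/Em495/520. Ligand efficiency derived from binding IC50.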

[2] = Brain exposure pharmacokinetics in rats; format: in vivo; conditions: male Sprague Dawley rats, oral gavage 10 mg/kg
Protocol: The brain exposure of exemplary compounds, e.g., 1, 2, and 4 were evaluated in male Sprague Dawley rats after oral gavage administration at 10 mg/kg. The formulation was 5% DMSO+10% PEG400 in saline. Rats were fasted overnight with food returned 4 hours post-dose. CSF was collected by direct needle puncture into the cisterna magna.
(§1) For both rat and mouse studies, brain tissue was washed with 3 volumes of saline prior to homogenization. Brain tissue was homogenized with 3 volumes (v/w) of phosphate buffered saline. Plasma, brain homogenate, and CSF samples (rat only) were analyzed by LC-MS/MS and the concentration of test compound at each time point was determined by linear regression.
(§2) Pharmacokinetic parameters were calculated from the plasma, brain, and CSF concentrations by non-compartmental modeling using WinNonlin 8.2.

[3] = Brain exposure pharmacokinetics in mice; format: in vivo; conditions: male C57BL/6 mice, oral gavage 5 mg/kg
Protocol: The brain exposure of 18 was evaluated in male C57BL/6 mice after oral gavage administration at 5 mg/kg. The formulation was 10% DMSO+40% PEG400 in saline. Mice were provided free access to food and water without fasting. Terminal sample collection of plasma and brain tissue were collected at […], 0.25, 0.5, 1, 2, and 4 hours post-dose with n=3 at each timepoint.
as §1, §2

T1 sequence (P29597 589-875 limits assumed): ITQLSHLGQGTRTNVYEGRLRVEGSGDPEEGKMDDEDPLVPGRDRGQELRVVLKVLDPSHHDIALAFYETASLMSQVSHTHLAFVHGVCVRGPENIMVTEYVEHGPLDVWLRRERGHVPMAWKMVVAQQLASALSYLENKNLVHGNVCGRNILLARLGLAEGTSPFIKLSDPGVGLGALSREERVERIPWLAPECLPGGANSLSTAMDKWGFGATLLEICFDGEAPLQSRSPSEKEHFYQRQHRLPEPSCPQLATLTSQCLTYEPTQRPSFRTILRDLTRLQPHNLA

SMILES	Ligand Efficiency [1]	Brain Kpu, u [2]	Brain Kpu, u [3]
C[C@@H](c1ccc(Nc2cc(Nc3ncccc3S(C)(=O)=O)ncn2)nc1)N(C)C [Compound 4, (S)—N^4-(5-(1-(dimethylamino)ethyl)pyridin-2-yl)-N^6-(3-(methylsulfonyl)pyridin-2-yl) pyrimidine-4,6-diamine]	††† (†††: >0.39)	††† (††† >0.2 u)	
Cc1cccc(Nc2cc(Nc3ncccc3S(C)(=O)=O)ncn2)n1 [Compound 18, N^4-(6-methylpyridin-2-yl)-N^6-(3-(methylsulfonyl)pyridin-2-yl) pyrimidine-4,6-diamine]	††† (†††: >0.39)		††† (††† >0.2 u)
